Data as given in US10844051B2, “Substituted oxazoles for the treatment of cancer” (THE ROYAL INSTITUTION FOR THE ADCANCEMENT OF …, priority 2015, dated 2020).
Entries after “also recorded” stand apart in the source; their conditions may differ. Blank lines part the entries; values can stand above or below the compound they belong to.

Experiments:
ETV1 = target: T1, ETV1 (Homo sapiens, UniProt P50549); experiment: ETV1-dependent reporter assay in HEK293 cells; assay type: cell-based; conditions: 48 hours
T1 construct: expressed in transfected cells; host or cells: HEK293
T1 sequence (P50549 1-477): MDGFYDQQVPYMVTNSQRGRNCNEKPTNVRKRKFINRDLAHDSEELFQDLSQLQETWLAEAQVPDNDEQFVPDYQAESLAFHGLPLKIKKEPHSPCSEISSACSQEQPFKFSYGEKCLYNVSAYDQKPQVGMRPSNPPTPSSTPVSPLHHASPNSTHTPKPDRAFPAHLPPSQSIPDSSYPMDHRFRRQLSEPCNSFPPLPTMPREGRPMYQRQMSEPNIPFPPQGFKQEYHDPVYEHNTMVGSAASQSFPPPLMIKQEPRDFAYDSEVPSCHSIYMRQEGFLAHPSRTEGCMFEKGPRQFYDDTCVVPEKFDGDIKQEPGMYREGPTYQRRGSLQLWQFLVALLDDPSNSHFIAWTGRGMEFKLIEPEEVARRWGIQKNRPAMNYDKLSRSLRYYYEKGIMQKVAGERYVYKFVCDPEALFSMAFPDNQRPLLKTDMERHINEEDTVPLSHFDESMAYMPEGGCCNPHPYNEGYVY
Method: HEK293 cells were transiently transfected with empty vector (for the NT) or ERG-expressing plasmid as well as pRL-TK (internal control) and PUx3-Luc reporter. Cells were then exposed to DMSO vehicle or compounds at designated doses for 48 hours. Experiments were done in triplicate.
Experiments were done as described above in FIG. 1.1a) except that ERG plasmid was replaced by ETV1 plasmid.

LNCaP cells = experiment: MTT cytotoxicity assay in ETV1-positive LNCaP cells; assay type: cell-based; conditions: 72 hours
Method: FIG. 1.8 Cytotoxicity of compounds 827 and 832 in the ETV1-postive LNCaP cells as evaluated by MTT assay (72 hours).

[1] = target: T2, recombinant human KRAS 12D mutant protein (Homo sapiens, UniProt P01116, G12D); experiment: SPR analysis on amine-coupled KRAS (G12D mutant); assay type: binding; conditions: for Kd: PBS-T containing 1 μM GDP, steady-state
T2 construct: purchased ORIGENE TP700052
T2 sequence (P01116 1-188 isoform P01116-2 G12D): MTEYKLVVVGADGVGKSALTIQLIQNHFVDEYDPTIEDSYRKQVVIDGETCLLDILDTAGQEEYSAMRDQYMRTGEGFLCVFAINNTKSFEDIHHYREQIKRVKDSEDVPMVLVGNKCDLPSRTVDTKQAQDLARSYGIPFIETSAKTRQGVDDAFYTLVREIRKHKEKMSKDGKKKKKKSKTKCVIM
Method: FIG. 4.1 SPR analysis. Left panels, SPR sensorgrams for compounds 784 and 895 binding to 3500 RU amine-coupled KRAS (G12D mutant) at 25 μL/min in PBS-T containing 1 μM GDP. Right panels, corresponding non-linear regression analyses of steady-state binding responses versus concentration to determine apparent equilibrium dissociation constants (KD).
Since activation of KRAS leads to activation of NF-kB,^69 we performed in vitro screening of our compounds by KRAS mutant-dependent NF-kB-luc reporter assay in HEK293 cells. […] Also, compounds of the invention are cytotoxic to PANC 10.05 pancreatic cancer cells, H23 NSCLC cells and HCT-116 colorectal cancer cells (FIG. 4.5).

[2] = test system: phosphorylation of ERK in Panc 10.05 cells; experiment: Western blot, phosphorylation of ERK in Panc 10.05 cells; assay type: cell-based; conditions: 24 hours
Method: (§1) C-PARP, cleaved PARP. Panc10.05 cells were exposed to DMSO vehicle or compounds at designated doses for 24 hours.
Panc10.05 cells were exposed to DMSO vehicle or compounds at designated doses for 24 hours.

Panc 10.05 cells = experiment: Western blot, apoptosis (cleaved PARP) in Panc 10.05 cells; assay type: cell-based; conditions: 24 hours
Method: as §1

[3] = test system: phosphorylation of ERK in HCT-116 cells; experiment: Western blot, phosphorylation of ERK in HCT-116 cells; assay type: cell-based; conditions: 10 μM, 24 hours
Method: HCT-116 cells were exposed to DMSO vehicle or compounds at designated doses for 24 hours.

[4] = test system: H23 KRAS-mutant NSCLC cells; experiment: MTT assay, H23; assay type: cell-based; conditions: endogenous KRAS 12C, 72 hours
Method: FIG. 2.7 Compound 673 is cytotoxic in KRAS-mutant NSCLC cells (A549 and H23), but is not toxic the KRAS wild-type NSCLC cells (H322). Cells were exposed to vehicle or compounds (μM) for 72 hours. Viable cells were evaluated by MTT assays.
(§2) Panc 10.05, H23 and HCT-116 cells express endogenous KRAS 12D, 12C and 13D mutants, respectively. Cells were exposed to DMSO vehicle or compounds at designated doses for 72 hours. Experiments were done in triplicate.

[5] = test system: Panc10.05 pancreatic cancer cells; experiment: MTT analysis, Panc10.05; assay type: cell-based; conditions: endogenous KRAS 12D, 72 hours
Method: as §2

[6] = test system: HCT-116 colorectal cancer cells; experiment: MTT analysis, HCT-116; assay type: cell-based; conditions: endogenous KRAS 13D, 72 hours
Method: as §2

human GATA2 = target: T3, human GATA2 (Homo sapiens, UniProt P23769); experiment: GATA2-dependent reporter assay in IHH cells; assay type: cell-based; conditions: GATA-Luc reporter, 48 h
T3 construct: expressed in transfected cells; host or cells: IHH
T3 sequence (P23769 1-480): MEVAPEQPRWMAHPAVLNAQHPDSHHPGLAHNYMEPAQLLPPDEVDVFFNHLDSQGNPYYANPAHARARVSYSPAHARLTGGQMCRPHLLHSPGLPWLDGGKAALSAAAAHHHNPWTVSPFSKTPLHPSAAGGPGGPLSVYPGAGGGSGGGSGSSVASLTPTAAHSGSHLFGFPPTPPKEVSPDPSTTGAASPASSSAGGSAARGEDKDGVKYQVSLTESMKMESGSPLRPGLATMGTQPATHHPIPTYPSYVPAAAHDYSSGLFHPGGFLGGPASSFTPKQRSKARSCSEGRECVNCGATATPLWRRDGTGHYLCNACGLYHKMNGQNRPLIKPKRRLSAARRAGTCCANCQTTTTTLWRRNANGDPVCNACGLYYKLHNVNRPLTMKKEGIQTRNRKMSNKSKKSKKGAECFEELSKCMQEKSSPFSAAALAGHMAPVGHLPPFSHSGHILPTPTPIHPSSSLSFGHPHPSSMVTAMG
Method: K7174 is a known GATA2 inhibitor. The IHH cells were transiently transfected with empty vector (for the NT) or human GATA2-expressing plasmid as well as pRL-TK (internal control) and GATA-Luc reporter plasmids. Cells were exposed to DMSO vehicle or compounds for 48 h. Experiments were in triplicate.

human GATA3 = target: T4, human GATA3 (Homo sapiens, UniProt P23771); experiment: GATA3-dependent reporter assay in IHH cells; assay type: cell-based; conditions: 48 hours
T4 construct: expressed in transfected cells; host or cells: IHH
T4 sequence (P23771 whole entry): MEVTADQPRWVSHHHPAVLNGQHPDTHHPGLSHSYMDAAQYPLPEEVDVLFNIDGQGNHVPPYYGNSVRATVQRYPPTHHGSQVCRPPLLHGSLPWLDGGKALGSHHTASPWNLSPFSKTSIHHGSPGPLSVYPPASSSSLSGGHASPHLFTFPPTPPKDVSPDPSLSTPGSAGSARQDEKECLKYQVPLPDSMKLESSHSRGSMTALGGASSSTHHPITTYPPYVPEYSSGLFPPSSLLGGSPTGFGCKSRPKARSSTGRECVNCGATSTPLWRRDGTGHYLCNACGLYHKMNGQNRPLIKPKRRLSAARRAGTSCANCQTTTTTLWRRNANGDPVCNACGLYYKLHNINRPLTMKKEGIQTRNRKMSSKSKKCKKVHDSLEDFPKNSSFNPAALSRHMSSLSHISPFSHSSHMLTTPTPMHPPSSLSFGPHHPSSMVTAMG
Method: The IHH cells were transiently transfected with empty vector (for the NT) or human GATA3-expressing plasmid as well as pRL-TK (internal control) and GATA-Luc reporter plasmids. Cells were exposed to DMSO vehicle or compounds for 48 hours. Experiments were done in triplicate.

[7] = target: T5, recombinant protein of human GATA2 (Homo sapiens, UniProt P23769); experiment: SPR analysis on amine-coupled GATA2; assay type: binding; conditions: 50 μM each
T5 sequence (P23769 1-480): T3 sequence (P23769 1-480)
Source text: In embodiments of the invention, the androgen-bound AR is regressing GATA2 expression and inhibition of AR via castration or use of antiandrogen releases such expression. […] Overexpression of GATA2 confers resistance to antiandrogen bicalutamide (Bic) (FIG. 2.9). Compound 673 is effective against the LNCaP stably transfected with GATA2-expressing plasmid (referred to as LNCaP-GATA2 cells) (FIG. 2.8).

human STING (hSTING) = target: T6, human STING (hSTING) (Homo sapiens, UniProt Q86WV6); experiment: hSTING ISRE-luc reporter assay in 293T cells; assay type: cell-based; conditions: 24 hours
T6 construct: expressed in transfected cells; host or cells: 293T
T6 sequence (Q86WV6 whole entry H232R): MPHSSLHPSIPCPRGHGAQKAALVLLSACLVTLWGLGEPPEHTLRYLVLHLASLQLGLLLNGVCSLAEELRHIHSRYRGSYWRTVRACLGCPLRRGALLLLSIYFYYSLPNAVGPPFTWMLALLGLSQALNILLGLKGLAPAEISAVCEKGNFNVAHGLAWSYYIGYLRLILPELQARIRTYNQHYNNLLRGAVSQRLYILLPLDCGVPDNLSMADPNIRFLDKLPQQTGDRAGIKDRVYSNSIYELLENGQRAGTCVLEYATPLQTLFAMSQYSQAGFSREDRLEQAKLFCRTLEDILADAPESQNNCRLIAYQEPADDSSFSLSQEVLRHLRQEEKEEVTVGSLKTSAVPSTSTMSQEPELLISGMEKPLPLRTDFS
Method: ISRE-luc (reporter), pRL-TK (internal control) and hSTING-expressing plasmids were transiently transfected into 293T cells. Cells were exposed to DMSO vehicle control or compounds for 24 hours. Experiments were done in triplicate.

mouse STING (mSTING) = target: T7, mouse STING (mSTING) (Mus musculus, UniProt Q3TBT3); experiment: mSTING ISRE-luc reporter assay in 293T cells; assay type: cell-based; conditions: 24 hours
T7 construct: expressed in transfected cells; host or cells: 293T
T7 sequence (Q3TBT3 1-378): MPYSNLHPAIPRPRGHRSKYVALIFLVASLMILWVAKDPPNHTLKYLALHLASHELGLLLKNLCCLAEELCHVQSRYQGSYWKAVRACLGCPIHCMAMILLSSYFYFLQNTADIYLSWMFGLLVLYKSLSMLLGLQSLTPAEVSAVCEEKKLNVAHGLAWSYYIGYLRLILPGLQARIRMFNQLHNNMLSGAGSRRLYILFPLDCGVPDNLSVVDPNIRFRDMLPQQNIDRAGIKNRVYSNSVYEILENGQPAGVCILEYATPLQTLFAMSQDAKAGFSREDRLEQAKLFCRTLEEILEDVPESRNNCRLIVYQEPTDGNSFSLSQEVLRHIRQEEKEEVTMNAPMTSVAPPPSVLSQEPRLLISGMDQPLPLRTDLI
Method: ISRE-luc (reporter), pRL-TK (internal control) and mSTING-expressing plasmids were transiently transfected into 293T cells. Cells were exposed to DMSO vehicle control or compounds for 24 hours. Experiments were done in triplicate.

human STING = human STING (Homo sapiens, UniProt Q86WV6); experiment: SPR analysis on amine-coupled human STING; assay type: binding; conditions: 0-50 μM, 2-fold dilution series
Sequence of human STING (Q86WV6 whole entry H232R): as the sequence (Q86WV6 whole entry H232R) above

SMILES: c1coc(-c2nc(Cc3c[nH]c4ccccc34)[nH]c2-c2ccco2)c1 [Compound 832]
ETV1 inhibition in ETV1-dependent reporter assay (ETV1): ETV1 inhibitors | cytotoxicity in ETV1-positive LNCaP cells (MTT) (LNCaP cells): cytotoxic

SMILES: N#CCN(CCc1c[nH]c2ccccc12)Cc1nc(-c2cccc(F)c2)c(-c2cccc(F)c2)[nH]1 [Compound 1186]
inhibition of proliferation of H23 cells (MTT) [4]: dose-dependently inhibit proliferation | suppression of phosphorylation of ERK (Western blot) ([2]; 10 μM): potently suppressed phosphorylation of ERK | suppression of phosphorylation of ERK (Western blot) [3]: potently suppressed phosphorylation of ERK | inhibition of proliferation of Panc10.05 cells (MTT) [5]: dose-dependently inhibit proliferation | inhibition of proliferation of HCT-116 cells (MTT) [6]: dose-dependently inhibit proliferation

SMILES: c1coc(-c2nc(Cc3c[nH]c4ccccc34)oc2-c2ccco2)c1 [Compound 827]
ETV1 inhibition in ETV1-dependent reporter assay (ETV1): ETV1 inhibitors | cytotoxicity in ETV1-positive LNCaP cells (MTT) (LNCaP cells): cytotoxic

SMILES: COc1ccc(CC/C(=C/C(=O)N2CCN(c3ccccc3OC)CC2)c2ccccc2)cc1F [Compound 1261]
inhibition of proliferation of H23 cells (MTT) [4]: dose-dependently inhibit proliferation | inhibition of proliferation of Panc10.05 cells (MTT) [5]: dose-dependently inhibit proliferation | inhibition of proliferation of HCT-116 cells (MTT) [6]: dose-dependently inhibit proliferation

More lines, main results first:

direct binding with KRAS G12D mutant (SPR) [1]: Direct binding | Kd [1]: 45 µM
SMILES: COc1ccc(CC/C(=C/C(=O)N2CCC(O)(c3ccccc3)CC2)c2ccccc2)cc1F [Compound 895]
suppression of phosphorylation of ERK (Western blot) ([2]; designated doses): dose-dependently suppressed phosphorylation of ERK | induction of apoptosis (cleaved PARP, Western blot) (Panc 10.05 cells): induced apoptosis | suppression of phosphorylation of ERK (Western blot) [3]: potently suppressed phosphorylation of ERK

GATA2 inhibition in GATA2-dependent reporter assay (human GATA2): GATA2 inhibitors | activity against GATA3 in GATA3-dependent reporter assay (human GATA3; 10 μM): inactive against GATA3 | activity against GATA3 in GATA3-dependent reporter assay (human GATA3; compounds at 5 μM): inactive against GATA3 | activation of hSTING in ISRE-luc reporter assay (human STING (hSTING)): activate hSTING | activation of mSTING in ISRE-luc reporter assay (mouse STING (mSTING)): activate mouse STING (mSTING)
SMILES: c1coc(-c2nc(CCCc3c[nH]c4ccccc34)[nH]c2-c2ccco2)c1 [Compound 817]
binding to amine-coupled GATA2 (SPR) [7]: Direct binding; also recorded: Specific binding | binding to amine-coupled human STING (SPR) (human STING): Specific, dose-dependent binding; also recorded: Direct binding

GATA2 inhibition in GATA2-dependent reporter assay (human GATA2): GATA2 inhibitors | activity against GATA3 in GATA3-dependent reporter assay (human GATA3; 10 μM): inactive against GATA3 | direct binding with KRAS G12D mutant (SPR) [1]: Direct binding | Kd [1]: 190 µM
SMILES: O=C(Cc1c[nH]c2ccccc12)NCc1nc(-c2ccccc2)c(-c2ccccc2)o1 [Compound 784]
suppression of phosphorylation of ERK (Western blot) ([2]; designated doses): dose-dependently suppressed phosphorylation of ERK | induction of apoptosis (cleaved PARP, Western blot) (Panc 10.05 cells): induced apoptosis
